In patent US20260317324A1, “BIFUNCTIONAL COMPOUNDS FOR DEGRADING BRAF VIA UBIQUITIN PROTEOSOME PATHWAY” (Nurix Therapeutics, Inc., priority 2023, published 2026):

Columns and labels:
Format in all cases: cell-based
[1] = target: T1, BRAF G466V (Homo sapiens, UniProt P15056, G466V); assay: BRAF HiBiT degradation assay, C-terminal HiBiT-tagged BRAF G466V overexpressed in HCT-116 BRAF−/− cells (clone 8), Nano-Glo HiBiT Lytic assay
T1 construct: Horizon Discovery (HCT-116 BRAF−/− cells); host or cells: HCT-116 BRAF−/− cells, clone 8, lentiviral transduction
T1 sequence (P15056 whole entry G466V): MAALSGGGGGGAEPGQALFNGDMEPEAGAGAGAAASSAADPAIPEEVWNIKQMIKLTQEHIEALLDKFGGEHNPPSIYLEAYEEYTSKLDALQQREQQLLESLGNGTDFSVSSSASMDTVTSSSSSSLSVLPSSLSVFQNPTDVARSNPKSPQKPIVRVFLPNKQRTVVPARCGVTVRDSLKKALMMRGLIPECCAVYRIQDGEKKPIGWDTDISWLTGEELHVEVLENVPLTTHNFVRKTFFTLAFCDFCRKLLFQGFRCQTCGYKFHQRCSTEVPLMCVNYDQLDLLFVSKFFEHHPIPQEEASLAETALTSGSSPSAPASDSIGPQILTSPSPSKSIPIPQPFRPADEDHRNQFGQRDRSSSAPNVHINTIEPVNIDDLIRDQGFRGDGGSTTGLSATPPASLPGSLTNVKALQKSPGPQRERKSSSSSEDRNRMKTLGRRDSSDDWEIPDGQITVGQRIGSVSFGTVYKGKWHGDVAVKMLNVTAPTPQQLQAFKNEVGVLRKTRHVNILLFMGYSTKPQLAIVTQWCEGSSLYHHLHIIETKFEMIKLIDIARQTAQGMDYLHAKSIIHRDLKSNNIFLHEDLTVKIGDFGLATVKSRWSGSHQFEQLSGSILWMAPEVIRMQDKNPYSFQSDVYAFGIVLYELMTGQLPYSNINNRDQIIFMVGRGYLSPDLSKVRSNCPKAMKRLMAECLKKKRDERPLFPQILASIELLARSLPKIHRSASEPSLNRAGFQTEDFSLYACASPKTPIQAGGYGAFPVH
How it was run: (§1)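 We quantified degradation of the C-terminally HiBiT-tagged, overexpressed mutant by lytic luminescence, normalizing to DMSO-treated cells with wild-type HCT-116 background subtracted. Dose series ran from 1 μM to 0.01 nM at 0.2% DMSO. Observed Dmax is % degraded at maximal effect.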

[2] = target: T2, BRAF G469A (Homo sapiens, UniProt P15056, G469A); assay: BRAF HiBiT degradation assay, C-terminal HiBiT-tagged BRAF G469A overexpressed in HCT-116 BRAF−/− cells (clone 34), Nano-Glo HiBiT Lytic assay
T2 construct: Horizon Discovery (HCT-116 BRAF−/− cells); host or cells: HCT-116 BRAF−/− cells, clone 34, lentiviral transduction
T2 sequence (P15056 whole entry G469A): as the sequence (P15056 whole entry G466V) above, with V466G, G469A counted along it
How it was run: as §1

[3] = target: T3, BRAF V600E (Homo sapiens, UniProt P15056, V600E); assay: BRAF HiBiT degradation assay, C-terminal HiBiT-tagged BRAF V600E A375 cells (clone 1F10), Nano-Glo HiBiT Lytic assay; conditions: for Dmax: A-375
T3 construct: endogenous C-terminal HiBiT fusion tag on BRAF V600E allele; endogenous in cells; host or cells: A375 clone 1F10 (CRISPR-Cas9 knock-in of the HiBiT tag; parental A375 from ATCC)
T3 sequence (P15056 whole entry V600E, the tested form may be a part): as the sequence (P15056 whole entry G466V) above, with V466G, V600E counted along it
How it was run: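 Steps: seed HiBiT-tagged A375 clone 1F10 cells; incubate 24 h, 37 °C, 5% CO2; add compound (11 half-log points from 1 μM, 0.2% DMSO); lyse with HiBiT detection reagent plus LgBiT for 10 min; read luminescence; fit % protein remaining against concentration.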

[4] = target: T4, BRAF D594G (Homo sapiens, UniProt P15056, D594G); assay: BRAF HiBiT degradation assay, C-terminal HiBiT-tagged BRAF D594G overexpressed in HCT-116 BRAF−/− cells (clone 63), Nano-Glo HiBiT Lytic assay
T4 construct: Horizon Discovery (HCT-116 BRAF−/− cells); host or cells: HCT-116 BRAF−/− cells, clone 63, lentiviral transduction
T4 sequence (P15056 whole entry D594G): as the sequence (P15056 whole entry G466V) above, with V466G, D594G counted along it
How it was run: as §1

[5] = BRAF G466V (Class 3), HCT-116 BRAF−/− cells, DC50 at 50% degradation
[6] = BRAF G466V (Class 3), HCT-116 BRAF−/− cells, observed Dmax relative to DMSO control
[7] = BRAF G469A (Class 2), HCT-116 BRAF−/− cells, DC50 at 50% degradation
[8] = BRAF G469A (Class 2), HCT-116 BRAF−/− cells, observed Dmax relative to DMSO control
[9] = A375 (BRAF V600E, Class 1), DC50 at 50% degradation
[10] = A375 (BRAF V600E, Class 1), observed Dmax, % protein degraded relative to DMSO control
[11] = BRAF D594G (Class 3), HCT-116 BRAF−/− cells, DC50 at 50% degradation
[12] = BRAF D594G (Class 3), HCT-116 BRAF−/− cells, observed Dmax relative to DMSO control
[13] = BRAF G466V, DC50 at 50%: fitted conc. at Y=50
[14] = HCT-116, BRAF G466V, percentage protein degraded at maximal compound effect relative to DMSO
[15] = Class 2, BRAF G469A, DC50 at 50%: fitted conc. at Y=50
[16] = HCT-116, Class 2, BRAF G469A, percentage protein degraded at maximal compound effect relative to DMSO
[17] = A375 (BRAF V600E), DC50 at 50%: fitted conc. at Y=50
[18] = A375 (BRAF V600E), percentage protein degraded at maximal compound effect relative to DMSO
[19] = BRAF D594G, DC50 at 50%: fitted conc. at Y=50
[20] = HCT-116, BRAF D594G, percentage protein degraded at maximal compound effect relative to DMSO

DC50 [1, 5] [nM]	Dmax [1, 6] [%]	DC50 [2, 7] [nM]	Dmax [2, 8] [%]	DC50 [3, 9] [nM]	Dmax [3, 10] [%]	DC50 [4, 11] [nM]	Dmax [4, 12] [%]	DC50 [1, 13] [nM]	Dmax [1, 14] [%]	DC50 [2, 15] [nM]	Dmax [2, 16] [%]	DC50 [3, 17] [nM]	Dmax [3, 18] [%]	DC50 [4, 19] [nM]	Dmax [4, 20] [%]	SMILES
–	–	–	–	–	–	–	–	50 to 500	30 to 70	> 500	< 30	50 to 500	> 70	> 500	30 to 70	CCN(C)S(=O)(=O)Nc1cccc(-c2nc(C(C)(C)C)sc2-c2ccnc(Nc3ccc(N4CCN(CC5CCN(c6ccc([C@H]7CCC(=O)NC7=O)cc6)CC5)CC4)cn3)n2)c1F [Compound 128, (3R)-3-{4-[4-({4-[6-({4-[2-tert-butyl-4-(3-{[ethyl(methyl)sulfamoyl]amino}-2-fluorophenyl)-1,3-thiazol-5-yl]pyrimidin-2-yl}amino)pyridin-3-yl]piperazin-1-yl}methyl)piperidin-1-yl]phenyl}piperidine-2,6-dione]
–	–	–	–	–	–	–	–	> 500	30 to 70	> 500	30 to 70	10 to 50	> 70	> 500	30 to 70	CCCS(=O)(=O)Nc1cccc(-c2nc(C(C)(C)C)sc2-c2ccnc(Nc3cccc(OC4CCN(C(=O)CN5CCC(c6ccc(NC7CCC(=O)NC7=O)cc6)CC5)CC4)c3)n2)c1F (racemic) [Compound 96, Rac-N-(3-{2-tert-butyl-5-[2-({3-[(1-{2-[4-(4-{[(3R)-2,6-dioxopiperidin-3-yl]amino}phenyl)piperidin-1-yl]acetyl}piperidin-4-yl)oxy]phenyl}amino)pyrimidin-4-yl]-1,3-thiazol-4-yl}-2-fluorophenyl)propane-1-sulfonamide]
–	–	–	–	–	–	–	–	> 500	< 30	> 500	< 30	50 to 500	30 to 70	> 500	< 30	CCCS(=O)(=O)Nc1cccc(-c2nc(C(C)(C)C)sc2-c2ccnc(Nc3ccc(C4CCN(C(=O)C5CCN(c6cc(C7CCC(=O)NC7=O)ccn6)CC5)CC4)cc3)n2)c1F (racemic) [Compound 163, Rac-N-(3-{2-tert-butyl-5-[2-({4-[1-(1-{4-[(3R)-2,6-dioxopiperidin-3-yl]pyridin-2-yl}piperidine-4-carbonyl)piperidin-4-yl]phenyl}amino)pyrimidin-4-yl]-1,3-thiazol-4-yl}-2-fluorophenyl)propane-1-sulfonamide]
10 to 50	30 to 70	10 to 50	30 to 70	10 to 50	> 70	< 10	30 to 70	–	–	–	–	–	–	–	–	CCCS(=O)(=O)Nc1cccc(-c2cn(-c3ccc(N4CCC(CN5CCN(c6ccc(C7CCC(=O)NC7=O)cc6)CC5)CC4)cc3)nc2-c2ccncc2)c1F (racemic) [Compound 381, Rac-(R)—N-(3-(1-(4-(4-((4-(4-(2,6-dioxopiperidin-3-yl)phenyl)piperazin-1-yl)methyl)piperidin-1-yl)phenyl)-3-(pyridin-4-yl)-1H-pyrazol-4-yl)-2-fluorophenyl)propane-1-sulfonamide]
–	–	–	–	–	–	–	–	> 500	30 to 70	> 500	30 to 70	< 10	> 70	> 500	30 to 70	CCCS(=O)(=O)Nc1cccc(-c2nc(C(C)(C)C)sc2-c2ccnc(Nc3ccc(N4CCN(C(=O)[C@@H]5CCN(c6ccc([C@H]7CCC(=O)NC7=O)cn6)C5)CC4)c(F)c3)n2)c1F (racemic) [Compound 49, Rac-N-(3-(2-(tert-butyl)-5-(2-((4-(4-((R)-1-(5-((R)-2,6-dioxopiperidin-3-yl)pyridin-2-yl)pyrrolidine-3-carbonyl)piperazin-1-yl)-3-fluorophenyl)amino)pyrimidin-4-yl)thiazol-4-yl)-2-fluorophenyl)propane-1-sulfonamide]
–	–	–	–	–	–	–	–	10 to 50	30 to 70	> 500	30 to 70	< 10	> 70	> 500	30 to 70	CCCS(=O)(=O)Nc1cccc(-c2nc(-c3ccc(N4CCN(CC5CCN(c6ccc([C@H]7CCC(=O)NC7=O)cc6)CC5)CC4)cc3)sc2-c2ccnc(N)n2)c1F [Compound 191, N-{3-[5-(2-aminopyrimidin-4-yl)-2-(4-{4-[(1-{4-[(3R)-2,6-dioxopiperidin-3-yl]phenyl}piperidin-4-yl)methyl]piperazin-1-yl}phenyl)-1,3-thiazol-4-yl]-2-fluorophenyl}propane-1-sulfonamide]

Second part, the molecule before the results:

SMILES	DC50 [1, 5] [nM]	Dmax [1, 6] [%]	DC50 [2, 7] [nM]	Dmax [2, 8] [%]	DC50 [3, 9] [nM]	Dmax [3, 10] [%]	DC50 [4, 11] [nM]	Dmax [4, 12] [%]	DC50 [1, 13] [nM]	Dmax [1, 14] [%]	DC50 [2, 15] [nM]	Dmax [2, 16] [%]	DC50 [3, 17] [nM]	Dmax [3, 18] [%]	DC50 [4, 19] [nM]	Dmax [4, 20] [%]
O=C1CC[C@H](c2ccc(N3CCC(CN4CCN(c5ccc(-n6cc(-c7cc(Cl)cc(NS(=O)(=O)N8CCCC8)c7F)c(-c7ccncc7)n6)cc5)CC4)CC3)cc2)C(=O)N1 [Compound 282, N-{5-chloro-3-[1-(4-{4-[(1-{4-[(3R)-2,6-dioxopiperidin-3-yl]phenyl}piperidin-4-yl)methyl]piperazin-1-yl}phenyl)-3-(pyridin-4-yl)-1H-pyrazol-4-yl]-2-fluorophenyl}pyrrolidine-1-sulfonamide]	< 10	> 70	< 10	30 to 70	< 10	> 70	< 10	30 to 70	–	–	–	–	–	–	–	–
O=C1CCC(c2ccc(N3CCC(CN4CCN(c5ccc(-n6cc(-c7cc(Cl)cc(NS(=O)(=O)N8CCCC8)c7F)c(-c7ccncc7)n6)cc5F)CC4)CC3)nc2)C(=O)N1 (racemic) [Compound 363, Rac-N-{5-chloro-3-[1-(4-{4-[(1-{5-[(3R)-2,6-dioxopiperidin-3-yl]pyridin-2-yl}piperidin-4-yl)methyl]piperazin-1-yl}-3-fluorophenyl)-3-(pyridin-4-yl)-1H-pyrazol-4-yl]-2-fluorophenyl}pyrrolidine-1-sulfonamide]	< 10	> 70	< 10	> 70	< 10	> 70	< 10	> 70	–	–	–	–	–	–	–	–
O=C1CCC(c2ccc(N3CCC(F)(CN4CCN(c5ccc(-n6cc(-c7cc(Cl)cc(NS(=O)(=O)N8CCCC8)c7F)c(-c7ccncc7)n6)cc5)CC4)CC3)cc2)C(=O)N1 (racemic) [Compound 284, Rac-N-{5-chloro-3-[1-(4-{4-[(1-{4-[(3R)-2,6-dioxopiperidin-3-yl]phenyl}-4-fluoropiperidin-4-yl)methyl]piperazin-1-yl}phenyl)-3-(pyridin-4-yl)-1H-pyrazol-4-yl]-2-fluorophenyl}pyrrolidine-1-sulfonamide]	< 10	> 70	10 to 50	> 70	10 to 50	> 70	< 10	> 70	–	–	–	–	–	–	–	–
C[C@@H]1CN(c2ccc(-n3cc(-c4cc(Cl)cc(NS(=O)(=O)N5CC[C@@H](F)C5)c4F)c(-c4ccncc4)n3)cc2)CCN1CC1CCN(c2ccc(C3CCC(=O)NC3=O)cn2)CC1 (mixture of isomers) [Compound 318, (3R)—N-[5-chloro-3-(1-{4-[(3R)-4-[(1-{5-[(3RS)-2,6-dioxopiperidin-3-yl]pyridin-2-yl}piperidin-4-yl)methyl]-3-methylpiperazin-1-yl]phenyl}-3-(pyridin-4-yl)-1H-pyrazol-4-yl)-2-fluorophenyl]-3-fluoropyrrolidine-1-sulfonamide]	< 10	> 70	< 10	> 70	< 10	> 70	< 10	> 70	–	–	–	–	–	–	–	–
O=C1CCN(c2ccc(N3CCC(CN4CCN(c5ccc(-n6cc(-c7cc(Cl)cc(NS(=O)(=O)N8CCCC8)c7F)c(-c7ccncc7)n6)cc5F)CC4)CC3)cc2)C(=O)N1 [Compound 361, N-[5-chloro-3-(1-{4-[4-({1-[4-(2,4-dioxo-1,3-diazinan-1-yl)phenyl]piperidin-4-yl}methyl)piperazin-1-yl]-3-fluorophenyl}-3-(pyridin-4-yl)-1H-pyrazol-4-yl)-2-fluorophenyl]pyrrolidine-1-sulfonamide]	< 10	> 70	> 500	30 to 70	< 10	> 70	< 10	30 to 70	–	–	–	–	–	–	–	–
